Experimental data from patent US11648254B2 (Kumquat Biosciences Inc., priority 2021, dated 2023).
Where two headings read alike, the source gives them in different places.

Legend:
[1] = system: MIA PaCa-2 cells (K-Ras G12C); assay: Ras-SOS cellular growth inhibition assay (CellTiter-Glo, 3D); assay type: cell-based; conditions: Homo sapiens
Method in brief: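 Growth read by CellTiter-Glo luminescence about 5 days after dosing with 3-fold dilutions (9 points), added one day post-seeding. Cells: MIA PaCa-2, 3D culture on ultra-low-attachment surface, medium DMEM/Ham's F12 plus 10% FCS and 2.5% horse serum; IC50 by four-parameter fit.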

[2] = system: NCI-H1975 cells (EGFR T790M L858R); assay: EGFR-SOS cellular inhibition assay (CellTiter-Glo, 3D); assay type: cell-based; conditions: Homo sapiens
SOS1 = SOS1 (Homo sapiens (Human), UniProt Q07889); assay: Ras-SOS interaction assay (HTRF); assay type: biochemical
Sequence of SOS1 (Q07889 564-1049): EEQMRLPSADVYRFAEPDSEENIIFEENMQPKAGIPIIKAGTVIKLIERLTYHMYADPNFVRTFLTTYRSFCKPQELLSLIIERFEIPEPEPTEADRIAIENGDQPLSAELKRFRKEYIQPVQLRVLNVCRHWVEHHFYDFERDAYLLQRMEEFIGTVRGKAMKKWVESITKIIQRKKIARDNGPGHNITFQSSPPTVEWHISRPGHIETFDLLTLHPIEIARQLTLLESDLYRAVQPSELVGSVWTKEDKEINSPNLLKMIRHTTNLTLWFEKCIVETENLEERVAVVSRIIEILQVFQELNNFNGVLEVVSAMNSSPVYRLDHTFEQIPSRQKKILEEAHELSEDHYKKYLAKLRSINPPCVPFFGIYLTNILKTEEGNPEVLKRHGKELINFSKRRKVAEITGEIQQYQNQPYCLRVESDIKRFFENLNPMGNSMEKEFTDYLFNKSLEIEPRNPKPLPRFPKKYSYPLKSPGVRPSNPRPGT

[3] = MIA PaCa-2, 120 h, MIA PaCa-2, 3D proliferation, about 5 days, read-out: Bio-Cell-Prolif-3D (MiaPaca2 IC50)
[4] = 120 h, NCI-H1975, 3D proliferation, about 5 days, read-out: Bio-Cell-Prolif-3D (H1975 IC50)
[5] = NCI-H1975, EGFR T790M L858R, read-out: IC50 in inhibiting growth of NCI-H1975 cell line
[6] = K-RasG13D, read-out: IC50 value against SOS1
[7] = K-RasG13D utilized, read-out: IC50 inhibition of SOS
[8] = MIA PaCa-2, MIA PaCa-2, read-out: IC50 in inhibiting MIA PaCa-2 cell growth

SMILES	IC50 [1, 3]	IC50 [2, 4]	IC50 [2, 5]	IC50 (SOS1; [6])	IC50 (SOS1; [7])	IC50 [1, 8]
C#Cc1nc(N[C@H](C)c2cccc(C(F)F)c2F)c2cc(C3(C#N)CC3)c(OC)nc2n1 [Compound 276, (R)-1-(4-((1-(3-(difluoromethyl)-2-fluorophenyl)ethyl)amino)-2-ethynyl-7-methoxypyrido[2,3-d]pyrimidin-6-yl)cyclopropane-1-carbonitrile]	1000 to 10000 nM	1000 to 10000 nM	–	–	< 100 nM	–
COc1nc2nc(C)nc(N[C@H](C)c3cccc(C(F)(F)CN4CCC4)c3F)c2cc1C1(C#N)CC1 [Compound 277, (R)-1-(4-((1-(3-(2-(azetidin-1-yl)-1,1-difluoroethyl)-2-fluorophenyl)ethyl)amino)-7-methoxy-2-methylpyrido [2,3-d]pyrimidin-6-yl)cyclopropane-1-carbonitrile]	≤ 1000 nM	≤ 1000 nM	< 500 nM	< 50 nM	< 100 nM	–
COc1nc2nc(OCC3COC3)nc(N[C@H](C)c3cccc(C(F)F)c3F)c2cc1C1(C#N)CC1 [Compound 278, (R)-1-(4-((1-(3-(difluoromethyl)-2-fluorophenyl)ethyl)amino)-7-methoxy-2-(oxetan-3-ylmethoxy)pyrido [2,3-d]pyrimidin-6-yl)cyclopropane-1-carbonitrile]	> 10000 nM	1000 to 10000 nM	–	–	< 100 nM	–
COc1nc2nc(C)nc(N[C@H](C)c3cccc(C(F)(F)F)c3C)c2cc1C1(C#N)CCN(C(C)C)CC1 [Compound 285, (R)-1-isopropyl-4-(7-methoxy-2-methyl-4-((1-(2-methyl-3-(trifluoromethyl)phenyl)ethyl)amino)pyrido[2,3-d]pyrimidin-6-yl)piperidine-4-carbonitrile]	1000 to 10000 nM	≤ 1000 nM	–	< 50 nM	< 100 nM	–
COc1nc2ncnc(N[C@H](C)c3cccc(C(F)(F)C4CCC(N(C)C)CC4)c3F)c2cc1C1CCS(=O)(=O)CC1 (stereo partly drawn) [Compound 289, (R)-4-(4-((1-(3-((4-(dimethylamino)cyclohexyl)difluoromethyl)-2-fluorophenyl)ethyl)amino)-7-methoxypyrido[2,3-d]pyrimidin-6-yl)tetrahydro-2H-thiopyran 1,1-dioxide]	≤ 1000 nM	≤ 1000 nM	< 500 nM	< 50 nM	< 100 nM	< 500 nM
COc1nc2ncnc(N[C@H](C)c3cccc(C(C)(F)F)c3F)c2cc1N1CCS(=O)(=O)CC1 [Compound 292, (R)-4-(4-((1-(3-(1,1-difluoroethyl)-2-fluorophenyl)ethyl)amino)-7-methoxypyrido[2,3-d]pyrimidin-6-yl)thiomorpholine 1,1-dioxide]	≤ 1000 nM	≤ 1000 nM	< 500 nM	< 50 nM	< 100 nM	< 500 nM
Cc1nc(N[C@H](C)c2cccc(C(F)F)c2F)c2cc(C3(C#N)CC3)c(OC[C@@H]3CC(F)(F)CN3C)nc2n1 [Compound 296, 1-(7-(((S)-4,4-difluoro-1-methylpyrrolidin-2-yl)methoxy)-4-(((R)-1-(3-(difluoromethyl)-2-fluorophenyl)ethyl)amino)-2-methylpyrido[2,3-d]pyrimidin-6-yl)cyclopropane-1-carbonitrile]	1000 to 10000 nM	≤ 1000 nM	–	–	< 100 nM	–
Cc1nc(N[C@H](C)c2cccc(C(F)F)c2F)c2cc(C3(C#N)CC3)c(O[C@H]3CCOC3)nc2n1 [Compound 297, 1-(4-(((R)-1-(3-(difluoromethyl)-2-fluorophenyl)ethyl)amino)-2-methyl-7-(((S)-tetrahydrofuran-3-yl)oxy)pyrido[2,3-d]pyrimidin-6-yl)cyclopropane-1-carbonitrile]	1000 to 10000 nM	≤ 1000 nM	< 500 nM	< 50 nM	–	–
Cc1nc(N[C@H](C)c2cccc(C(F)F)c2F)c2cc(C3(C#N)CC3)c(OCC3COC3)nc2n1 [Compound 299, (R)-1-(4-((1-(3-(difluoromethyl)-2-fluorophenyl)ethyl)anrino)-2-methyl-7-(oxetan-3-ylmethoxy)pyrido[2,3-d]pyrimidin-6-yl)cyclopropane-1-carbonitrile]	1000 to 10000 nM	≤ 1000 nM	–	< 50 nM	< 100 nM	–

Next, values leading:

IC50 [1, 3]	IC50 [2, 4]	IC50 [2, 5]	IC50 (SOS1; [6])	IC50 (SOS1; [7])	IC50 [1, 8]	SMILES
≤ 1000 nM	≤ 1000 nM	< 500 nM	< 50 nM	–	–	COc1nc2nc(C)nc(N[C@H](C)c3cccc(C(F)(F)C4CN(C)C4)c3)c2cc1N1CCS(=O)(=O)CC1 [Compound 272, (R)-4-(4-((1-(3-(difluoro(1-methylazetidin-3-yl)methyl)phenyl)ethyl)amino)-7-methoxy-2-methylpyrido[2,3-d]pyrimidin-6-yl)thiomorpholine 1,1-dioxide]
≤ 1000 nM	≤ 1000 nM	< 500 nM	–	< 100 nM	< 500 nM	COc1nc2ncnc(N[C@H](C)c3cccc(C(F)(F)C4CN(C(C)C)C4)c3F)c2cc1C1CCS(=O)(=O)CC1 [Compound 283, (R)-4-(4-((1-(3-(difluoro(1-isopropylazetidin-3-yl)methyl)-2-fluorophenyl)ethyl)amino)-7-methoxypyrido[2,3-d]pyrimidin-6-yl)tetrahydro-2H-thiopyran-1,1-dioxide]
≤ 1000 nM	≤ 1000 nM	< 500 nM	< 50 nM	< 100 nM	< 500 nM	CCN1CCC(c2cc3c(N[C@H](C)c4cccc(C(F)(F)F)c4F)nc(C)nc3nc2OC)CC1 [Compound 288, (R)-6-(1-ethylpiperidin-4-yl)-N-(1-(2-fluoro-3-(trifluoromethyl)phenyl)ethyl)-7-methoxy-2-methylpyrido [2,3-d]pyrimidin-4-amine]
≤ 1000 nM	≤ 1000 nM	< 500 nM	< 50 nM	< 100 nM	< 500 nM	CC(C)N1CCC(C(F)(F)c2cccc([C@@H](C)Nc3ncnc4nc(Cl)c(N5CCN(C(C)C)CC5)cc34)c2)CC1 [Compound 291, (R)-7-chloro-N-(1-(3-(difluoro(1-isopropylpiperidin-4-yl)methyl)phenyl)ethyl)-6-(4-isopropylpiperazin-1-yl)pyrido[2,3-d] pyrimidin-4-amine]
≤ 1000 nM	≤ 1000 nM	< 500 nM	< 50 nM	< 100 nM	< 500 nM	Cc1nc(N[C@H](C)c2cccc(C(F)(F)C3CCN(C(C)C)CC3)c2)c2cc(N3CCN(C(C)C)CC3)c(Cl)nc2n1 [Compound 293, (R)-7-chloro-N-(1-(3-(difluoro(1-isopropylpiperidin-4-yl)methyl)phenyl)ethyl)-6-(4-isopropylpiperazin-1-yl)-2-methylpyrido[2,3-d] pyrimidin-4-amine]
≤ 1000 nM	≤ 1000 nM	< 500 nM	< 50 nM	< 100 nM	< 500 nM	Cc1nc(N[C@H](C)c2cccc(C(F)F)c2F)c2cc(C3(C#N)CC3)c(N3CCN(C)CC3)nc2n1 [Compound 295, (R)-1-(4-((1-(3-(difluoromethyl)-2-fluorophenyl)ethyl)amino)-2-methyl-7-(4-methylpiperazin-1-yl)pyrido[2,3-d]pyrimidin-6-yl)cyclopropanecarbonitrile]
